{"source": "patent US7572603B2", "about": "“Alpha-2 adrenergic receptor polymorphisms” (University of Cincinnati, priority 2000, dated 2009)", "key": {"wild-type alpha-2CAR [1]": {"biological_target": "T1, wild-type alpha-2CAR (Homo sapiens, UniProt P18825, L239R/R446P/S401I)", "T1 sequence (P18825 1-462 L239R/S401I/R446P)": "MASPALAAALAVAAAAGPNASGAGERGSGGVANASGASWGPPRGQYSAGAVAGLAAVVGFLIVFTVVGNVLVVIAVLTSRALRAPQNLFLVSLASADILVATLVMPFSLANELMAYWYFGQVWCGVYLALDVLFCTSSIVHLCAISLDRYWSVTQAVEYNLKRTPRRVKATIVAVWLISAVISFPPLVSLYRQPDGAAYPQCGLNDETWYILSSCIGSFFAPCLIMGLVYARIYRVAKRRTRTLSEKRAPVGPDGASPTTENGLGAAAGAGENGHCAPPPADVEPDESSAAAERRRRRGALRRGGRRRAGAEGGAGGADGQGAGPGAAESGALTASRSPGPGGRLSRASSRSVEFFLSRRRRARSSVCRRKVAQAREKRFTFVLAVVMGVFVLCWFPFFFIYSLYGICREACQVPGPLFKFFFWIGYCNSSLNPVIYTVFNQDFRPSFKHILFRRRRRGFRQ", "assay": "Inhibition of forskolin-stimulated adenylyl cyclase, CHO cell membranes", "type": "biochemical", "parameters": "expressed in transfected cells; membranes or intact cells", "details": "for Max Inhibition (%) of adenylyl cyclase: CHO line expressing 1570 ± 79.9 fmol/mg", "from_the_text": "(§1) Reactions were terminated by the addition of a stop solution containing excess ATP and cAMP and —100,000 dpm of [3H]cAMP. Labeled cAMP was isolated by gravity chromatography over alumina columns with [3H]cAMP used to quantitate column recovery. […] Results are expressed as percent inhibition of forskolin stimulated activity."}, "wild-type alpha-2BAR [2]": {"biological_target": "T2, wild-type alpha-2BAR (Homo sapiens, UniProt P18089)", "T2 sequence (P18089 1-450)": "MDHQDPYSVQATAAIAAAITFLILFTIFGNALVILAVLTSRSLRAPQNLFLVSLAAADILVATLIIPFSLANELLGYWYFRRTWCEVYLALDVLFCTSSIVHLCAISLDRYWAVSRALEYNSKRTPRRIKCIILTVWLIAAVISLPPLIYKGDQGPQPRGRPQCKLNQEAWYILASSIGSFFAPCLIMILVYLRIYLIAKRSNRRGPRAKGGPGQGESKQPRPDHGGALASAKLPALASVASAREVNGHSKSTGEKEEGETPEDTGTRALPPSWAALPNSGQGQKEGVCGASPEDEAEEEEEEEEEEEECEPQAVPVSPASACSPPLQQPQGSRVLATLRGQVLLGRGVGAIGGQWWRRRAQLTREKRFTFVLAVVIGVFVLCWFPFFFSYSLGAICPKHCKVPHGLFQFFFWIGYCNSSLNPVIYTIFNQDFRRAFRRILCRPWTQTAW", "type": "cell-based", "parameters": "expressed in transfected cells; host or cells: COS-7, transient (DEAE-dextran), co-transfected with GRK2", "details": "10 μM norepinephrine 15 minutes, GRK2 co-expressed"}, "wild-type alpha-2BAR [3]": {"biological_target": "T2, wild-type alpha-2BAR", "assay": "Inhibition of forskolin-stimulated adenylyl cyclase, CHO cell membranes, incl. desensitization", "type": "biochemical", "parameters": "The human receptor consists of 450 amino acids; expressed in transfected cells; membranes", "method": "Alpha-2BAR inhibition of adenylyl cyclase was determined in membrane preparations from CHO cells stably expressing the two receptors using methods similar to those previously described (25). […] Reactions were terminated by the addition of a stop solution containing excess ATP and cAMP and -100,000 dpm of [3H]cAMP. Labeled cAMP was isolated by gravity chromatography over alumina columns with [3H]cAMP used to quantitate column recovery. Results are expressed as percent inhibition of forskolin stimulated activity."}, "Lys251 alpha-2AAR [4]": {"biological_target": "T3, Lys251 alpha-2AAR (Homo sapiens, UniProt P08913, N266K)", "T3 sequence (P08913 16-465 N266K)": "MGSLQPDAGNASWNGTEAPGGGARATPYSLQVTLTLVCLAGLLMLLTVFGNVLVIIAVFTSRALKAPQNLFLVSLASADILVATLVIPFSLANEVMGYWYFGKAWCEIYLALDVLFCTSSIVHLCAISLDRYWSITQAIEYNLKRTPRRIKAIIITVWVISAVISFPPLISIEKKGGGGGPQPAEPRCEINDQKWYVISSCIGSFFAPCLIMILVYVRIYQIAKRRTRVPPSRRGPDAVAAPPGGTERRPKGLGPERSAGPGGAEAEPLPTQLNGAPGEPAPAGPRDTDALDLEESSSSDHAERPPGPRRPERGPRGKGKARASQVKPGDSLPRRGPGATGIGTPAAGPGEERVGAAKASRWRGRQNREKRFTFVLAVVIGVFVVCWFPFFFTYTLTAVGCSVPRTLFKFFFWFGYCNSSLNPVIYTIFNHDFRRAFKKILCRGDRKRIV", "assay": "[35S]GTPyS binding, COS-7 membranes coexpressing receptor and Gi alpha2", "type": "biochemical", "parameters": "expressed in transfected cells; membranes or intact cells", "details": "10 μM agonist", "protocol": "Nonspecific binding was measured in the presence of […] GTPyS."}, "wild-type alpha-2CAR [5]": {"biological_target": "T1, wild-type alpha-2CAR", "details": "epinephrine competition, absence of GTP"}, "wild-type alpha-2CAR [6]": {"biological_target": "T1, wild-type alpha-2CAR", "details": "10 μM epinephrine, 5 min; expression 806 fmol/mg"}, "wild-type alpha-2CAR [7]": {"biological_target": "T1, wild-type alpha-2CAR", "details": "10 μM epinephrine vs 1 unit/ml thrombin"}, "Lys251 alpha-2AAR [8]": {"biological_target": "T3, Lys251 alpha-2AAR", "method": "(§2) Alpha-2AAR inhibition of adenylyl cyclase was determined in membrane preparations from CHO cells stably expressing the two receptors using methods similar to those previously described (18). […] Reactions were terminated by the addition of a stop solution containing excess ATP and cAMP and —100,000 dpm of [3H]cAMP. Labeled cAMP was isolated by gravity chromatography over alumina columns with [3H]cAMP used to quantitate column recovery. […] Results are expressed as percent inhibition of forskolin stimulated activity."}, "[9]": {"biological_target": "T4, wild-type Asn251 alpha-2AAR (Homo sapiens, UniProt P08913)", "T4 sequence (P08913 16-465)": "T3 sequence (P08913 16-465 N266K) with K251N", "details": "expression 2360±263 fmol/mg", "method": "as §2"}, "wild-type alpha-2CAR [10]": {"biological_target": "T5, wild-type alpha-2CAR (Homo sapiens, UniProt P18825)", "T5 construct": "expressed in transfected cells; membranes or intact cells", "T5 sequence (P18825 1-462 L239R/S401I/R446P)": "T1 sequence (P18825 1-462 L239R/S401I/R446P)", "assay": "Inhibition of forskolin-stimulated adenylyl cyclase, CHO cell membranes", "type": "biochemical", "details": "CHO line expressing 1570 ± 79.9 fmol/mg", "from_the_text": "as §1"}}, "note": "Substitutions are numbered along the chain they refer to.", "data": [{"smiles": "Clc1cccc(Cl)c1N=C1NCCN1", "note": "[clonidine]", "values": [{"measurement": "Max Inhibition (%) of adenylyl cyclase", "setting": "wild-type alpha-2CAR [1]", "value": "38.5 ± 2.44", "unit": "%"}]}, {"smiles": "NC[C@H](O)c1ccc(O)c(O)c1", "note": "[norepinephrine]", "values": [{"measurement": "fold increase in receptor phosphorylation with agonist exposure", "setting": "wild-type alpha-2BAR [2]", "value": "5.84±0.49", "unit": "fold"}, {"measurement": "Desensitization %", "setting": "wild-type alpha-2BAR [3]; after 10 μM norepinephrine 30 min at 37° C.", "value": "~54", "unit": "%"}, {"measurement": "Submax inhibition % Ctrl", "setting": "wild-type alpha-2BAR [3]; at the EC50 of control membranes, cells pretreated with media alone", "value": "16.5±3.9", "unit": "%"}, {"measurement": "Max Inhibition of forskolin-stimulated adenylyl cyclase", "setting": "wild-type alpha-2BAR [3]; receptor density 626±54 fmol/mg", "value": "28.5±1.6", "unit": "%"}, {"measurement": "Max Inhibition (%) of adenylyl cyclase", "setting": "wild-type alpha-2CAR [1]", "value": "76.6 ± 1.60", "unit": "%"}, {"measurement": "enhanced [35S]GTPyS binding for the Lys251 receptor as compared to the Asn251 receptor", "setting": "Lys251 alpha-2AAR [4]", "value": "~40", "unit": "%"}]}, {"smiles": "CNC[C@H](O)c1ccc(O)c(O)c1", "note": "[epinephrine]", "values": [{"measurement": "agonist-promoted inhibition of adenylyl cyclase", "setting": "wild-type alpha-2CAR [1]; lower expressing line, 565 fmol/mg", "value": 73, "unit": "%"}, {"measurement": "% RH (percentage of receptors in the high-affinity state)", "setting": "wild-type alpha-2CAR [5]", "value": 42, "unit": "%"}, {"measurement": "stimulated accumulation of inositol phosphates over basal", "setting": "wild-type alpha-2CAR [6]", "value": 3, "unit": "Q"}, {"measurement": "MAP kinase stimulation as a percent of the thrombin response", "setting": "wild-type alpha-2CAR [7]", "value": 128}]}, {"smiles": "N=C(N)N/N=C/c1c(Cl)cccc1Cl", "note": "[guanabenz]", "values": [{"measurement": "Max Inhibition (%) of adenylyl cyclase", "setting": "wild-type alpha-2CAR [1]", "value": "53.8 ± 1.99", "unit": "%"}, {"measurement": "enhanced [35S]GTPyS binding for the Lys251 receptor as compared to the Asn251 receptor", "setting": "Lys251 alpha-2AAR [4]", "value": 72, "unit": "%"}]}, {"smiles": "Cc1cc(C(C)(C)C)c(O)c(C)c1CC1=NCCN1", "note": "[oxymetazoline]", "values": [{"measurement": "Max Inhibition (%) of adenylyl cyclase", "setting": "wild-type alpha-2CAR [1]", "value": "27.0 ± 2.70", "unit": "%"}, {"measurement": "augmented function (adenylyl cyclase inhibition) compared to the Asn251 receptor", "setting": "Lys251 alpha-2AAR [8]; Lys251 vs Asn251", "value": "~40", "unit": "%"}, {"measurement": "Maximal inhibition of forskolin-stimulated adenylyl cyclase", "setting": "Lys251 alpha-2AAR [8]; expression 2590±140 fmol/mg", "value": "50±6.6", "unit": "%"}, {"measurement": "Maximal inhibition of forskolin-stimulated adenylyl cyclase", "setting": "[9]", "value": "35±4.7", "unit": "%"}]}, {"smiles": "Brc1c(NC2=NCCN2)ccc2nccnc12", "note": "[UK 14304]", "values": [{"measurement": "Max Inhibition (%) of adenylyl cyclase", "setting": "wild-type alpha-2CAR [1]", "value": "67.6 ± 2.09", "unit": "%"}, {"measurement": "enhanced [35S]GTPyS binding for the Lys251 receptor as compared to the Asn251 receptor", "setting": "Lys251 alpha-2AAR [4]", "value": "~40", "unit": "%"}]}, {"smiles": "CCN1CCc2nc(N)oc2CC1", "note": "[BHT-933]", "values": [{"measurement": "Max Inhibition (%) of adenylyl cyclase", "setting": "wild-type alpha-2CAR [1]", "value": "56.8 ± 1.41", "unit": "%"}, {"measurement": "EC50", "setting": "wild-type alpha-2CAR [10]", "value": "5500 ± 2110", "unit": "nM"}, {"measurement": "enhanced [35S]GTPyS binding for the Lys251 receptor as compared to the Asn251 receptor", "setting": "Lys251 alpha-2AAR [4]", "value": 45, "unit": "%"}]}]}
